Source: patent US20180280349A1, “METHODS OF TREATING CYSTIC FIBROSIS IN PATIENTS WITH RESIDUAL FUNCTION MUTATIONS” (Vertex Pharmaceuticals Incorporated, priority 2017, published 2018)

Tests used:
[1] = tested on: cystic fibrosis patients with splice and missense mutations; test: Clinical trial in 248 cystic fibrosis patients with splice and missense (residual function) mutations: placebo, Compound II alone, Compound I and Compound II; type: in vivo, human; conditions: 100 mg Compound I every 24 hours, 150 mg Compound II every 12 hours
Protocol: A clinical trial was conducted with 248 cystic fibrosis patients with splice and missense mutations. Mutations were selected for the study based on the clinical phenotype (pancreatic sufficiency), biomarker data (sweat chloride), and in vitro responsiveness to tezacaftor/ivacaftor. The patients were assigned to one of three treatment groups: placebo, Compound II alone, and Compound I and Compound II. […] As shown in.

[2] = tested on: cystic fibrosis patients heterozygous for the F508del mutation and a CFTR residual function mutation; test: Second clinical trial: eight-week, randomized, double-blind, ivacaftor-controlled, parallel-group study in 150 CF patients; type: in vivo, human; conditions: active comparator treatment period
Protocol: A second clinical trial was conducted with 150 cystic fibrosis patients aged 12 years and older Who were heterozygous for the F508del mutation and a CFTR residual function mutation. This trial was an eight-week, randomized, double-blind, ivacaftor-controlled, parallel-group study in CF patients. Patients were randomized 1:1 to receive tezacaftor/ivacaftor or ivacaftor following a four-week run in of ivacaftor. The mean ppFEV1 at baseline was 64.3%. The treatment difference between tezacaftor/ivacaftor and ivacaftor-treated patients for absolute change in ppFEV1 (primary endpoint) through Week 8 in the active comparator treatment period was 0.3 percentage points.
Results for tezacaftor/ivacaftor- and ivacaftor-treated patients were similar for absolute change in ppFEV1, relative change in ppFEV1 and CFQ-R Respiratory Domain Score. In the active comparator treatment period, the mean absolute change in ppFEV 1 was 0.5% in the tezacaftor/ivacaftor group and 0.2% in the ivacaftor group; the mean relative change in ppFEV1 was 1.3% in the tezacaftor/ivacaftor group and 0.5% in the ivacaftor group; and the mean absolute change in the pooled CFQ-R respiratory domain score was 0.7 points in the tezacaftor/ivacaftor group and −2.1 points in the ivacaftor group. There was a reduction in sweat chloride in tezacaftor/ivacaftor-treated patients compared to the ivacaftor group (−5.8 mmol/L).

CC(C)(C)c1cc(C(C)(C)C)c(NC(=O)c2c[nH]c3ccccc3c2=O)cc1O [Compound II, N-(2,4-di-tert-butyl-5-hydroxyphenyl)-4-oxo-1,4-dihydroquinoline-3-carboxamide]
increase in CFQ-R score ([1]; after 8 weeks of treatment): 9.7 points
increase in ppFEV1 (percent predicted forced expiratory volume in one second) ([1]; average change from baseline after 4 and 8 weeks of treatment): 4.7 percentage points
mean absolute change in the pooled CFQ-R respiratory domain score [2]: −2.1 points
mean relative change in ppFEV1 [2]: 0.5%
mean absolute change in ppFEV1 ([2]; after four-week run in of ivacaftor): 0.2%
